Measured values published in PubChem BioAssay AID1224921 (Broad Institute, 2016).
Activity calls are given as the source filed them. No rule for the calls is given here.

These molecules were tested on Clostridioides difficile clinical isolate growth, OD600, 24 h (assay: C. difficile growth inhibition, confirmation, 4-point retest (AID 1224921)).

Row | SMILES | AC50
1 | CO[C@@H](CN(C)Cc1cc(F)ccc1F)[C@H](C)CN(C(=O)Nc1ccc(C(F)(F)F)cc1)[C@H](C)CO | 5.25 µM
2 | COc1ccccc1CNC(=O)C[C@H]1CC[C@H]2[C@@H](COC[C@H](O)CN2C(=O)Nc2ccc(C(F)(F)F)cc2)O1 | 12 µM
3 | C[C@@H]1CCCCO[C@H](CN(C)CC2CC2)[C@H](C)CN([C@@H](C)CO)C(=O)c2cc(NC(=O)Nc3ccc(C(F)(F)F)cc3)ccc2O1 | 16 µM
4 | O=C(C[C@@H]1CC[C@@H]2[C@H](COC[C@H](O)CN2C(=O)Nc2ccc(Cl)c(Cl)c2)O1)NCc1ccc(Cl)c(Cl)c1 | 1.14 µM
5 | O=C(NCC[C@H]1CC[C@@H](NC(=O)Nc2cc(F)ccc2F)[C@H](CO)O1)Nc1ccc(Cl)cc1 | 18.5 µM
6 | C[C@@H]1CCCCO[C@H](CN(C)C(=O)Nc2ccc(C(F)(F)F)cc2)[C@H](C)CN([C@@H](C)CO)C(=O)c2cc(N(C)C)ccc2O1 | > 60 µM (inactive)
7 | COc1ccccc1C#Cc1ccc([C@H]2[C@@H](C#N)N(C(=O)C3CCCCC3)[C@H]2CO)cc1 | 30 µM
8 | O=C(C[C@@H]1CC[C@@H]2[C@H](COC[C@@H](O)CN2C(=O)Nc2ccc(Cl)c(Cl)c2)O1)NCc1ccc(Cl)cc1 | 0.98 µM
9 | C[C@@H]1CN([C@@H](C)CO)C(=O)c2cc(NS(=O)(=O)c3ccc(Cl)cc3)ccc2O[C@@H](C)CCCCO[C@H]1CN(C)CC1CCCCC1 | 13.1 µM
10 | O=C(C[C@@H]1CC[C@H]2[C@@H](COC[C@@H](O)CN2C(=O)Nc2ccc(C(F)(F)F)cc2)O1)NCCc1ccncc1 | 4.89 µM
11 | C[C@@H]1CCCCO[C@H](CN(C)Cc2ccc3c(c2)OCO3)[C@@H](C)CN([C@@H](C)CO)C(=O)c2cc(NC(=O)Nc3ccc(C(F)(F)F)cc3)ccc2O1 | 20.9 µM
12 | N#C[C@@H]1[C@H](c2ccc(C#Cc3ccc(F)cc3)cc2)[C@@H](CO)N1C(=O)C1CCCC1 | > 70 µM (inactive)
13 | O=C(C[C@@H]1CC[C@@H]2[C@H](COC[C@@H](O)CN2C(=O)Nc2ccc(Cl)c(Cl)c2)O1)NCc1ccccc1 | 1.4 µM
14 | CO[C@@H]1CN(C)C(=O)c2ccc(NC(=O)Nc3cc(Cl)cc(Cl)c3)cc2OC[C@H](C)NC[C@H]1C | 7.81 µM
15 | O=C(NCC[C@H]1CC[C@@H](NC(=O)C2CC2)[C@@H](CO)O1)Nc1ccc(C(F)(F)F)cc1 | 1.69 µM
16 | O=C(NCC[C@H]1CC[C@@H](NC(=O)c2cccnc2)[C@@H](CO)O1)Nc1ccc(C(F)(F)F)cc1 | 2.9 µM
17 | CO[C@H](CN(C)S(=O)(=O)c1cn(C)cn1)[C@H](C)CN(C(=O)Nc1ccc(C(F)(F)F)cc1)[C@@H](C)CO | 7.66 µM
18 | O=C(C[C@@H]1CC[C@@H]2[C@H](COC[C@H](O)CN2C(=O)Nc2cc(Cl)cc(Cl)c2)O1)N1CCCCC1 | 1.41 µM
19 | CC(=O)N[C@@H]1CC[C@H](CCNC(=O)Nc2ccc(C(F)(F)F)cc2)O[C@H]1CO | 11.8 µM
20 | C[C@@H]1CN([C@@H](C)CO)C(=O)c2cc(NC(=O)Nc3ccc(C(F)(F)F)cc3)ccc2O[C@@H](C)CCCCO[C@H]1CN(C)Cc1ccccc1 | 26.9 µM
